From PubChem BioAssay (NCI) come the findings set out here.

Test systems include HOP-62 NSCLC; SN12C renal; HL-60(TB) leukemia; IGROV1 ovarian; SF-295 CNS; DU-145 prostate; BT-549 breast; U251 CNS; SK-OV-3 ovarian; MOLT-4 leukemia.
What all share (assay): NCI anticancer screen, dose series, 48 h

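How tested: cells in 96-well plates exposed to compound for 48 hours at five concentrations. GI50 = concentration required for 50% inhibition of growth. TGI: concentration producing complete growth inhibition.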 *1 amine or outer side, *2 acyl side, *3 side chain or, on linkers, in order; H or OH if unused. Where a SMILES comes first, the peptide text is derived from it. [ ]: non-standard residue; d: D form. The star is where a group is joined. ξ: configuration not given here. X15 = CCN(CC)c1ccc2cc(N*)c(=O)oc2c1; dIva = CC[C@@](C)(N)C(=O)O; X14 = O=C(OCCN[*:1])[*:2]; Aib = CC(C)(N)C(=O)O; ξP = O=C(O)C1CCCN1; βAla = NCCC(=O)O

For the compound `CCOC(=O)c1nc(Nc2ccc(Cl)cc2)c2ccccc2n1`, the GI50 with HOP-62 NSCLC is 16.4 µM; in the experiment with SN12C renal, 11.5 µM; in the experiment with HL-60(TB) leukemia, more than 50 µM; in the experiment on IGROV1 ovarian, 10.7 µM; in the experiment on SF-295 CNS it was 8.09 µM; with DU-145 prostate, 7.39 µM. Moreover, the GI50 with BT-549 breast is 10.2 µM; in the experiment with U251 CNS, 8.86 µM; in the experiment with SK-OV-3 ovarian, 10.6 µM. The TGI in the experiment with HOP-62 NSCLC is more than 50 µM; in the experiment with SN12C renal, 27.4 µM; with HL-60(TB) leukemia, more than 50 µM; with IGROV1 ovarian it was 26 µM; with SF-295 CNS it was 15.6 µM; with DU-145 prostate, 15.1 µM. For the same compound, the TGI with BT-549 breast was determined as 25.5 µM; in the experiment on U251 CNS, 18.5 µM; with SK-OV-3 ovarian it was 24 µM.
`CC(C)N1C(NNC(=O)c2cnccn2)=NS(=O)(=O)c2ccccc21`: the GI50 in the experiment with SN12C renal, with HL-60(TB) leukemia, with IGROV1 ovarian, in the experiment on SF-295 CNS, with DU-145 prostate and with BT-549 breast was more than 100 µM each time. The GI50 in the experiment with U251 CNS, in the experiment with SK-OV-3 ovarian and in the experiment on MOLT-4 leukemia was more than 100 µM in each case. The TGI in the experiment on SN12C renal, in the experiment with HL-60(TB) leukemia, in the experiment with IGROV1 ovarian, in the experiment on SF-295 CNS, in the experiment with DU-145 prostate and in the experiment on BT-549 breast was more than 100 µM each time. The TGI in the experiment on U251 CNS, in the experiment with SK-OV-3 ovarian and in the experiment with MOLT-4 leukemia was more than 100 µM each time.
Turning to `CCN(CC)c1ccc2cc(NC(=O)OCCNC(=O)CCNC(=O)[C@H](CC(C)C)NC(=O)C(C)(C)NC(=O)C(C)(C)NC(=O)[C@H](CC(C)C)NC(=O)CCNC(=O)C(C)(C)NC(=O)[C@H](CC(C)C)NC(=O)CCNC(=O)[C@@](C)(CC)NC(=O)[C@H](C)NC(=O)CCNC(=O)C(C)(C)NC(=O)[C@H](C)NC(=O)[C@@H]3CCCN3C(=O)[C@@](C)(CC)NC(=O)[C@H](Cc3ccccc3)NC(=O)C3CCCN3C(=O)C(C)(C)NC(=O)C3CCCN3C(=O)C(C)(C)NC(C)=O)c(=O)oc2c1` (stereo not given in full) (Ac-[Aib][ξP][Aib][ξP]F[dIva]PA[Aib][βAla]A[dIva][βAla]L[Aib][βAla]L[Aib][Aib]L[βAla][X14]-X15), the GI50 in the experiment on HOP-62 NSCLC was 0.00385 µM; in the experiment on SN12C renal, 0.0034 µM; in the experiment with HL-60(TB) leukemia it was 0.00316 µM; in the experiment on SF-295 CNS it was 0.00316 µM; with DU-145 prostate, 0.00497 µM; with BT-549 breast, 0.00367 µM. In addition, the GI50 in the experiment with U251 CNS was 0.00317 µM; in the experiment on SK-OV-3 ovarian, 0.0028 µM; with MOLT-4 leukemia, 0.00399 µM. For the same compound, the TGI with HOP-62 NSCLC turned out to be 0.021 µM; with SN12C renal, 0.0143 µM; in the experiment with HL-60(TB) leukemia, 0.011 µM; in the experiment with SF-295 CNS, 0.0103 µM; in the experiment on DU-145 prostate it was 0.0199 µM; in the experiment on BT-549 breast it was 0.022 µM. Further, the TGI with U251 CNS amounted to 0.0162 µM; in the experiment on SK-OV-3 ovarian, 0.00775 µM; in the experiment with MOLT-4 leukemia it was 0.0184 µM.
Consider `CCCCNC(=O)NS(=O)(=O)c1ccc(N2N=C(c3cc(C)ccc3C)CC2c2cc(OC)c(OC)c(OC)c2)cc1` (stereo not given), for which the GI50 is 3.15 µM in the experiment with HOP-62 NSCLC; 3.36 µM in the experiment with SN12C renal; 2.87 µM in the experiment on HL-60(TB) leukemia; 3.19 µM in the experiment on IGROV1 ovarian; 3.46 µM with DU-145 prostate; 2.73 µM in the experiment with BT-549 breast. Further, the figures for the GI50 in the experiment with U251 CNS, in the experiment with SK-OV-3 ovarian and in the experiment on MOLT-4 leukemia were 2.11 µM, 3.53 µM and 2.74 µM, respectively. Also, the TGI with HOP-62 NSCLC came to 10.2 µM; in the experiment on SN12C renal, 13.4 µM; in the experiment on HL-60(TB) leukemia, 7.62 µM; in the experiment on IGROV1 ovarian, 9.96 µM; in the experiment on DU-145 prostate, 11.1 µM; with BT-549 breast, 9.28 µM. Further, the TGI came to 5.62 µM in the experiment with U251 CNS, 10.1 µM with SK-OV-3 ovarian and 8.89 µM in the experiment with MOLT-4 leukemia.
For the compound `CC12CC(OC(=O)[C@]1(C)O)[C@@H]([C@]1(O)CC[C@H]3[C@@H]4C[C@H]5O[C@]56[C@@H](O)C=CC(=O)[C@]6(C)[C@H]4CC[C@@]31C)C2` (stereo not given in full), the TGI with HOP-62 NSCLC is more than 100 µM; in the experiment with SN12C renal, 20.5 µM; in the experiment on IGROV1 ovarian it was 35.1 µM; in the experiment on SF-295 CNS it was more than 100 µM; in the experiment on DU-145 prostate, 86.7 µM; in the experiment with BT-549 breast it was 9.57 µM. In addition, the TGI was 30 µM with U251 CNS, more than 100 µM with SK-OV-3 ovarian and 10.1 µM with MOLT-4 leukemia.
For the compound `Cc1cn2c(/C=N/Nc3ccccn3)c(-c3ccc(Cl)c([N+](=O)[O-])c3)nc2s1`, the GI50 with HOP-62 NSCLC was 10.7 µM; in the experiment on SN12C renal it was 14.3 µM; in the experiment with HL-60(TB) leukemia, more than 50 µM; in the experiment on IGROV1 ovarian it was 5.62 µM; in the experiment with SF-295 CNS it was 23 µM; in the experiment with DU-145 prostate it was 6.39 µM. For the same compound, the GI50 was 21.1 µM in the experiment on BT-549 breast, 8.22 µM in the experiment with U251 CNS and 9.95 µM with SK-OV-3 ovarian. Besides, the TGI in the experiment on HOP-62 NSCLC was 18.9 µM; in the experiment on SN12C renal it was 42.4 µM; with HL-60(TB) leukemia it was more than 50 µM; in the experiment on IGROV1 ovarian, 21.8 µM; with SF-295 CNS it was more than 50 µM; in the experiment on DU-145 prostate it was 29.8 µM. Moreover, the TGI in the experiment with BT-549 breast is more than 50 µM; with U251 CNS, 15.4 µM; in the experiment with SK-OV-3 ovarian, 22.5 µM.
On to `CCCCN(CCCC)c1ccc(C(=NC(C)CCCN(CC)CC)c2ccc(N(C)C)cc2)cc1` (stereo not given), for which the GI50 is 0.829 µM in the experiment with HOP-62 NSCLC; 1.01 µM in the experiment with HL-60(TB) leukemia; 0.897 µM in the experiment with IGROV1 ovarian; 0.88 µM with SF-295 CNS; 1.57 µM in the experiment on DU-145 prostate; 0.838 µM in the experiment with BT-549 breast. In addition, the GI50 with U251 CNS is 0.81 µM; with SK-OV-3 ovarian it was 1.14 µM; in the experiment with MOLT-4 leukemia, 0.865 µM. Besides, the TGI with HOP-62 NSCLC turned out to be 1.63 µM; with HL-60(TB) leukemia, 2.03 µM; with IGROV1 ovarian, 1.95 µM; in the experiment on SF-295 CNS, 1.73 µM; in the experiment with DU-145 prostate, 6.04 µM; in the experiment on BT-549 breast, 1.73 µM. Moreover, the TGI was 1.58 µM in the experiment on U251 CNS, 2.33 µM with SK-OV-3 ovarian and 2.18 µM in the experiment on MOLT-4 leukemia.
`CSc1ccccc1C#Cc1ccccc1C#CCCCCO`: the GI50 was 24.9 µM in the experiment with HOP-62 NSCLC; 16 µM in the experiment with SN12C renal; 14 µM with IGROV1 ovarian; 1.54 µM with SF-295 CNS; 4.73 µM in the experiment on DU-145 prostate; 13.3 µM in the experiment on BT-549 breast. The GI50 in the experiment with U251 CNS was 10.8 µM; in the experiment with SK-OV-3 ovarian, 15.8 µM; in the experiment with MOLT-4 leukemia it was 7.32 µM. Moreover, the TGI in the experiment on HOP-62 NSCLC was more than 100 µM; in the experiment on SN12C renal, 30.7 µM; with IGROV1 ovarian it was 27.5 µM; with SF-295 CNS, 6.3 µM; in the experiment on DU-145 prostate, 18 µM; in the experiment on BT-549 breast, 26.6 µM. Besides, the TGI came out at 22.7 µM with U251 CNS, 30.1 µM with SK-OV-3 ovarian and 29.3 µM in the experiment with MOLT-4 leukemia.
